Results taken from ChEMBL document CHEMBL1681705, “Optimisation of ITK inhibitors through successive iterative design cycles” (Bioorg Med Chem Lett, 2011).

Key:
[1] = target: Tyrosine-protein kinase Yes (Homo sapiens) (UniProt P07947); assay: Inhibition of Yes at 1 uM; values are per cent of control
[2] = target: Tyrosine-protein kinase JAK2 (Homo sapiens) (UniProt O60674); assay: Inhibition of JAK2 at 1 uM; values are per cent of control
[3] = target: Tyrosine-protein kinase SYK (Homo sapiens) (UniProt P43405); assay: Inhibition of Syk at 0.1 uM; values are per cent of control
[4] = target: Dual specificity mitogen-activated protein kinase kinase 1 (Homo sapiens) (UniProt Q02750); assay: Inhibition of MEK1 at 0.1 uM; values are per cent of control
[5] = target: T1, Ephrin type-A receptor 1 (Homo sapiens) (UniProt P21709); assay: Inhibition of EphA1 at 0.1 uM; values are per cent of control
T1 sequence (whole entry): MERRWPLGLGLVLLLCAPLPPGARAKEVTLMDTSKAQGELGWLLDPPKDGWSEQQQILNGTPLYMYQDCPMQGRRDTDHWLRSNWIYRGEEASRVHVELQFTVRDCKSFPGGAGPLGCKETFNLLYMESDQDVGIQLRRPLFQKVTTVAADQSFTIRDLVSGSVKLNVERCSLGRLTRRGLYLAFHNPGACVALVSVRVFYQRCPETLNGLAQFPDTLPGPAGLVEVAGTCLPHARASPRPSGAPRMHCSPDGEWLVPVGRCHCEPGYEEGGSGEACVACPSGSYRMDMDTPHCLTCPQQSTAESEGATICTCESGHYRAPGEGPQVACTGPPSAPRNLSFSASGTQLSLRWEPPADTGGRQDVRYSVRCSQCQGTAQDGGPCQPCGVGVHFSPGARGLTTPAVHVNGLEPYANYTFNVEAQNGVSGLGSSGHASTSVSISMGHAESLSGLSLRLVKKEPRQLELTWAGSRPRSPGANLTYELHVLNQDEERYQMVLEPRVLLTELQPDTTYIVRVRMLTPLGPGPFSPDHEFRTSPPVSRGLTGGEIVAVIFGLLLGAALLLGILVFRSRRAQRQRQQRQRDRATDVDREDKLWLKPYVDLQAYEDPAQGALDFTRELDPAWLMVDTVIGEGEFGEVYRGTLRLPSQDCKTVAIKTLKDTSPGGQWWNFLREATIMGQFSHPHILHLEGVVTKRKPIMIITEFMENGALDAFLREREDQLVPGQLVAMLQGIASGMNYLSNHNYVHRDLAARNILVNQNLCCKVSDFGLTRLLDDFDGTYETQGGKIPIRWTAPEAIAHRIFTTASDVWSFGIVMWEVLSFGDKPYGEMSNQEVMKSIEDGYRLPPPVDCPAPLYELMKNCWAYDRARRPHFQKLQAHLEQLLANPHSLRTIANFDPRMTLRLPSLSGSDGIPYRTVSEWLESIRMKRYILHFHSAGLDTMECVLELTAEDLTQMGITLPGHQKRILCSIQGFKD

[6] = target: T2, Tyrosine-protein kinase ZAP-70 (Homo sapiens) (UniProt P43403); assay: Inhibition of ZAP70 at 0.1 uM; values are per cent of control
T2 sequence (whole entry): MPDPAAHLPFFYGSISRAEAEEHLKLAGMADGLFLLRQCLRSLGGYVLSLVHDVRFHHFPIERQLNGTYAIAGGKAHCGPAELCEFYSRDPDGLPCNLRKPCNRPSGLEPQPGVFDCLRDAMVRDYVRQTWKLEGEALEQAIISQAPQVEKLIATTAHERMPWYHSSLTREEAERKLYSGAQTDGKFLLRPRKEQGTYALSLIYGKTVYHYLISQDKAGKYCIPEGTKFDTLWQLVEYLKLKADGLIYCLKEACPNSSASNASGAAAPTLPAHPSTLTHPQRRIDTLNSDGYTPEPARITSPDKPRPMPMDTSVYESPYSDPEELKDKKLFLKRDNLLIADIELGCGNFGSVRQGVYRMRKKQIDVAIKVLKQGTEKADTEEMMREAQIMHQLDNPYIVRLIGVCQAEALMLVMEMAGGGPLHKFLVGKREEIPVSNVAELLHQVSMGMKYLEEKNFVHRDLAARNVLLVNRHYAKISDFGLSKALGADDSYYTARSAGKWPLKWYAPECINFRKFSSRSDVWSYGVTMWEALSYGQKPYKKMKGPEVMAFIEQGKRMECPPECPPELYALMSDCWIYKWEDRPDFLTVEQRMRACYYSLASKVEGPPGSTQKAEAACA

[7] = target: RAC-beta serine/threonine-protein kinase (Homo sapiens) (UniProt P31751); assay: Inhibition of PKBbeta at 0.1 uM; values are per cent of control
[8] = target: T3, Protein kinase C epsilon type (Homo sapiens) (UniProt Q02156); assay: Inhibition of PKCepsilon at 1 uM; values are per cent of control
T3 sequence (whole entry): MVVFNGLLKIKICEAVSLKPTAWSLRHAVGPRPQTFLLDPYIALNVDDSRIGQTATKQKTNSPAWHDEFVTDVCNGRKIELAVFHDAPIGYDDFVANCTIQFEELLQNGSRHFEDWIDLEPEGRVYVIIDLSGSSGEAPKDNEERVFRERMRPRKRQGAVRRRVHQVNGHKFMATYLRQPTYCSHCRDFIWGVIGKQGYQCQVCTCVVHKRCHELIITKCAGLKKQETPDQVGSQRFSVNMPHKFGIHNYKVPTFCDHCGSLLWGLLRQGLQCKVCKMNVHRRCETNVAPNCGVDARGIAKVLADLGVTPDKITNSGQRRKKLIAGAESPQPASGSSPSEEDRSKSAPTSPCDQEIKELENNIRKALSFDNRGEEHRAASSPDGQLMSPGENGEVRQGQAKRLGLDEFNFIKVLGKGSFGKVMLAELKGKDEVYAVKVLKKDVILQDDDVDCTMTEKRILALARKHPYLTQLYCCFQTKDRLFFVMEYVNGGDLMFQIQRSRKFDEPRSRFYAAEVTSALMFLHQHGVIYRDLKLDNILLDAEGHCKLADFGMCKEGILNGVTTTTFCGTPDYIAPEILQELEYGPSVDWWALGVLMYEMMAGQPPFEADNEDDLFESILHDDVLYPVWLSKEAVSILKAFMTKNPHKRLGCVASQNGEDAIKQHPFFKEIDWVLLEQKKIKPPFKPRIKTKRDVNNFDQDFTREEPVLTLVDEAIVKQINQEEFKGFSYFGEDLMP

[9] = target: Cyclin-dependent kinase 7/ cyclin H (Homo sapiens) (UniProt P51946+P50613); assay: Inhibition of CDK7/cyclin H/MAT1 at 0.1 uM; values are per cent of control

Sequence of Tyrosine-protein kinase JAK2 (Homo sapiens) (O60674 whole entry): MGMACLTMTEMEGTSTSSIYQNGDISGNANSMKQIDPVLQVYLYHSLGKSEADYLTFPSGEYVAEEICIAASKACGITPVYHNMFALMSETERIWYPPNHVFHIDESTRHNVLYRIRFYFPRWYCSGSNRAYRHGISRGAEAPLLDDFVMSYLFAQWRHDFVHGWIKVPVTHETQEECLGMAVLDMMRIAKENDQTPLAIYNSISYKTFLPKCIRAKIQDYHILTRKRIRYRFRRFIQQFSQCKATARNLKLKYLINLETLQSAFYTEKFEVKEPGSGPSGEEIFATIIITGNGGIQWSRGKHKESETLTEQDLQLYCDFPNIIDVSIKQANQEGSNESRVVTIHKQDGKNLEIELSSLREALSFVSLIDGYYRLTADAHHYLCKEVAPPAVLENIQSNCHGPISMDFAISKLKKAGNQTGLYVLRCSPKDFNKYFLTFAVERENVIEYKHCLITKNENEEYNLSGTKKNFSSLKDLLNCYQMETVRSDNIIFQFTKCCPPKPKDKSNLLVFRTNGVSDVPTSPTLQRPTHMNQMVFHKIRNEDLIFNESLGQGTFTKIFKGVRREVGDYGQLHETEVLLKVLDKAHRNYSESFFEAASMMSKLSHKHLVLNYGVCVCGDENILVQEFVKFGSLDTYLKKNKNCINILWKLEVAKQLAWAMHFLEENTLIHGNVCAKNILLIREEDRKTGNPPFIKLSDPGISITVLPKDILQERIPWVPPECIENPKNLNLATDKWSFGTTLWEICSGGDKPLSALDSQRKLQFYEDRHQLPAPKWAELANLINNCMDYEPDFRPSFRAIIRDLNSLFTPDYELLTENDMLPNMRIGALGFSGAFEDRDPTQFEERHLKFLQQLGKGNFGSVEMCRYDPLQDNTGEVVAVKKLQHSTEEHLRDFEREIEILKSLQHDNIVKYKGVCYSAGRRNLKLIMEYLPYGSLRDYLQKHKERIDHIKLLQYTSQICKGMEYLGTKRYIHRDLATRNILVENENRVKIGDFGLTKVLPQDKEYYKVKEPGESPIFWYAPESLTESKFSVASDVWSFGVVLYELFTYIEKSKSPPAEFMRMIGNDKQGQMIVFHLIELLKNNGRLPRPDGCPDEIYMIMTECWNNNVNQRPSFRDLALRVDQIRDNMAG
Sequence of RAC-beta serine/threonine-protein kinase (Homo sapiens) (P31751 whole entry): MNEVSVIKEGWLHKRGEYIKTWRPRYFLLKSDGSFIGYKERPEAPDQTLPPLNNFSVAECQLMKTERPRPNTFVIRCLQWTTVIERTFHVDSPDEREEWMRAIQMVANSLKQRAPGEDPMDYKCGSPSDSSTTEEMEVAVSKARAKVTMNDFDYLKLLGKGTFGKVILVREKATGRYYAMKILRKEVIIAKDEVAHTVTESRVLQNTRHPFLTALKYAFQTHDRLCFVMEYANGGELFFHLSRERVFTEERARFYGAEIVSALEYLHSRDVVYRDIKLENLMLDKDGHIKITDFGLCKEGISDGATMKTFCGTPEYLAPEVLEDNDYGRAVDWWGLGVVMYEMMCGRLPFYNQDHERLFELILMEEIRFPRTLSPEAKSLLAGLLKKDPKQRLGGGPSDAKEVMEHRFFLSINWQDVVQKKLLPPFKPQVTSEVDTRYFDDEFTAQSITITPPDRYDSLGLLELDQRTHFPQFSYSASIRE
Sequence of Dual specificity mitogen-activated protein kinase kinase 1 (Homo sapiens) (Q02750 whole entry): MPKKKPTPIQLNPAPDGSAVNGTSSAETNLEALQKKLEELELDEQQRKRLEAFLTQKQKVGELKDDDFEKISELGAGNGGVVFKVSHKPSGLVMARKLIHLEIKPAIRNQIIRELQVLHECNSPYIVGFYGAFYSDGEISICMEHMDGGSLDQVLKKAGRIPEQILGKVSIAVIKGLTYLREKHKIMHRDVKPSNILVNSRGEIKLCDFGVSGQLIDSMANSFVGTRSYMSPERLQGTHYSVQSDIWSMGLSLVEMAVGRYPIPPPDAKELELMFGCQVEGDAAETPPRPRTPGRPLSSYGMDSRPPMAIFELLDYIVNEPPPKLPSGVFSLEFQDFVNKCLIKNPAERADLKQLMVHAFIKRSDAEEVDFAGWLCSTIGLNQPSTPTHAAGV
Sequence of Tyrosine-protein kinase Yes (Homo sapiens) (P07947 2-543 limits assumed): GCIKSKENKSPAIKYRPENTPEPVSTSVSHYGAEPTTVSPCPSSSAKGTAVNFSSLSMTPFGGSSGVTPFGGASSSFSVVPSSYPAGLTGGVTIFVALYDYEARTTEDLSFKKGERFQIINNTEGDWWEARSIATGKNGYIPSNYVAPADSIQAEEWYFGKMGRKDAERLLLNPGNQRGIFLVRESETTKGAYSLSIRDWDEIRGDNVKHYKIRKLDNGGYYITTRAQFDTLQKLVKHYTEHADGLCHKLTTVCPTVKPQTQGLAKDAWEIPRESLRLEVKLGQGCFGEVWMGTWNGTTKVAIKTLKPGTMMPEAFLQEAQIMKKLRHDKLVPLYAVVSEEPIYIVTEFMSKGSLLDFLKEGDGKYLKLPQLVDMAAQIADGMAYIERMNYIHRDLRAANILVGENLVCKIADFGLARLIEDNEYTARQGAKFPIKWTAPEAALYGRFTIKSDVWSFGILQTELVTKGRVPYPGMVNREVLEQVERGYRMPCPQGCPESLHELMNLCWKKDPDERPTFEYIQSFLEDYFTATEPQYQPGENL

Cc1ccc2cc(-c3n[nH]c4ccc(NC5CCNC5)cc34)[nH]c2c1 (stereo not drawn)
residual activity [1]: 0%
residual activity [2]: 0%
residual activity [3]: 2%
residual activity [4]: 51%
residual activity [5]: 39%
residual activity [6]: 93%
residual activity [7]: 107%
residual activity [8]: 21%
residual activity [9]: 42%

Cc1ccc2cc(-c3n[nH]c4ccc(NC5CCN(Cc6ccccc6)CC5)cc34)[nH]c2c1
residual activity [1]: -3%
residual activity [2]: 2%
residual activity [3]: 0%
residual activity [4]: 96%
residual activity [5]: 64%
residual activity [6]: 93%
residual activity [7]: 103%
residual activity [8]: 67%
residual activity [9]: 94%
